# Laboratory results published in publication PMC10879279 (Frontiers in Behavioral Neuroscience, 2024).
# “Also recorded” adds a separate entry of the source. Where two headings read alike, the source gives them in different places.
# Key:
# mGluR4 [1] = details: ref Mathiesen et al., 2003; Dalton et al., 2017; cited from earlier work
# human mGluR5 = test: Calcium flux imaging, CHO-mGluR5 cells; type: cell-based
# Excerpt: mGluR5 activation leads to Ca^2+ influx that could be blocked by adding a specific antagonists or NAMs ([Kettunen et al., 2002]; [Beggiato et al., 2018]). Elevation of intracellular Ca^2+ levels via the phospholipase C pathway is typical for all Gq-coupled GPCRs ([Liu et al., 2008]) and can be detected using a penetrating Ca^2+ indicator.
# The CHO cell line stably expressing human mGluR5 was generated using T-Rex System (Thermo Fisher Scientific Inc., United States) according to the manufacturer’s instructions. Briefly, complementary DNA (cDNA) encoding human mGluR5 was subcloned into the pcDNA4/TO inducible expression vector, which was transfected into CHO cells carrying the pcDNA6/TR regulatory vector that expresses the tetracycline repressor. After 2 weeks of selection using 5 μg/mL blasticidin (Thermo Fisher Scientific Inc.) and 250 μg/mL zeocin (Thermo Fisher Scientific Inc.), pools of cells were screened for the expression of mGluR5 in the agonist-induced Ca^2+ uptake assay. Positive cells were expanded and used. mGluR5 expression was induced by adding up to 1 μg/mL of tetracycline (Thermo Fisher Scientific Inc.) 16 h before testing.
# Fluorescent assays were performed using NOVOstar (BMG LABTECH, Germany). CHO-mGluR5 cells were seeded into black-walled, clear-bottomed 96-well plates at a density of 75,000 cells per well (complete media without antibiotics and containing 1 μg/mL of tetracycline to induce receptor expression) and were cultured overnight at 37°C. The cells were then loaded with the cytoplasmic calcium indicator Fluo-4 AM using the Fluo-4 Direct™ Calcium Assay Kits (Thermo Fisher Scientific Inc.) and incubated in the dark at 37°C for 60 min, and then at 25°C for 60 min. The buffer alone (control) or the buffer containing different concentrations of LCGM-10 (0.02, 2, 20, and 200 μM), LCGM-15 (0.02, 2, 20, and 200 μM), or 2-methyl-6-(phenylethynyl) pyridine ([MPEP] 0.1, 1, 10, and 100 μM; Sigma-Aldrich, United States) were added to the cells (in six replicate wells). […] The measurements were performed at pH 7.4 and 37°C.
# rodents = details: ref Guimaraes et al., 2015, cited from earlier work
# Excerpt: Therefore, we evaluated the potential of LCGM-10 as a therapeutic in male rats submitted to the OF and EPM. […] The importance of mGluR5 for modulating motor behavior has been reported in pharmacological ([Mcgeehan et al., 2004]; [Guimaraes et al., 2015]) as well as knockout ([Gray et al., 2009]; [Jew et al., 2013]; [Ribeiro et al., 2014]) studies in rodents, with so ...
# zebrafish [2] = test system: zebrafish; design: method as in Maximino et al., 2014; details: similar to LCGM-10 and LCGM-15, ref Maximino et al., 2014, cited from earlier work
# ADHD patients = details: cited from earlier work; for effect size of non-stimulants: medium range, smaller than stimulants, ref Cortese et al., 2018
# Excerpt: To sum up, the development of new medications for disorders with an excessive impulsivity as a major component is of high interest for both academy and industry. Addictions, including substance use disorder and gambling, faces the unmet need for novel medicines ([Rash et al., 2016]). In case of ADHD there is also a need for new medications with novel mechanisms of action since currently approved drugs show a non-response or lack efficacy in a significant number of patients ([Mechler et al., 2022]). Routinely used stimulant methylphenidate is efficient in up to 70% of cases ([Bodey, 2011]), and ...
# human = details: ref Shiels et al., 2009; cited from earlier work
# Excerpt: (§1) Delay discounting tasks are also used to assess impulsive behavior in human studies, giving an insight into causal mechanism of addictions such as substance abuse and gambling ([Reynolds, 2006]; [de Wit, 2009]; [Hodgins and Holub, 2015]), and ADHD ([Barkley et al., 2001]; [Scheres et al., 2008]; [Shiels et al., 2009]). Impulsivity in the human and rodent delay discounting task derives form the similar neural substrates: lower D2/3 receptor availability in ventral striatum of rats and pathological gamblers, individuals with methamphetamine dependence, and alcohol use disorder ([Voon and Dalley, ...
# animal models = details: ref Wooters and Bardo, 2011; cited from earlier work
# Excerpt: as §1
# mGluR1 = test: Luciferase reporter assay, mGluR1; type: cell-based; details: DHPG 10 µM; (−)-PHCCC 40 µM; HEK293, N = 3
# Method: (§2) Figure S5. The mGluR1- and mGliR4-luciferase reporter assay results. HEK293 cells transfected with genetic reporter systems were treated with DHPG (10 µM) or DHPG (10 µM) + (−)-PHCCC (40 µM) in the case of mGluR1 and with L-AP4 (1 µM) or L-AP4 (1 µM) + (−)-PHCCC (40 µM) in the case of mGluR4. LCGM-10 was administered at a dose of 20 and 200 µM. […] The data are presented as the mean ± standard deviation for three biological replicates (N=3 in each group). * P < 0.01 versus the transfected control + control agonist.
# mGluR4 [3] = test: Luciferase reporter assay, mGluR4; type: cell-based; details: L-AP4 1 µM; (−)-PHCCC 40 µM; HEK293, N = 3
# Method: as §2
# zebrafish [4] = details: ref Malyshev et al., 2021; cited from earlier work
# Excerpt: We carried out the two most common tests to evaluate the fish response to the stressful conditions of novelty (NTT) and bright light (LDB). Figure 1 represents the summary data of the effects of the LCGM peptides on the NTT and LDB results relative to each group control, expressed as z-scores. The Supporting Information contains the examples of motor tracks (Supplementary Figures S1, S2), and primary data (Supplementary Figures S3, S4), and Table 2 provides the results of the two-way ANOVA.
# mice = test system: mice; design: method as in Kobayashi et al., 2020; details: caffeine 25 mg/kg, ref Kobayashi et al., 2020; cited from earlier work
# Wistar rats = test: Home cage spontaneous locomotor activity (SLA); type: in vivo, rat (Wistar)
# Method: Wildtype D. rerio (128 fish, shortfin phenotype, 6–8 months of age, male to female ratio 50: 50) were kept in a ZebTEC recirculating system (Tecniplast S.p.a, Buguggiate, Italy), and housed under a 14/10-h photoperiod (lights on at 08: 00 and off at 22: 00). The system parameters were maintained automatically with water set at 28°C, pH 6.8–7.5, […], and constant aeration. Feeding was carried out twice a day with special food for fish (Special Diet Services, Scientific Fish Food, SDS 300–400). In total, 30 male Sprague Dawley rats were used in the behavioral screening study, and 53 male Wistar rats in the locomotion study (N = 23) and the delay discounting test (N = 30). The animals were housed under constant environmental conditions (12-h photoperiod at 22 ± 2°C) with ad libitum access to food and water. All animal experiments were conducted in accordance with the European Directive 2010/63/EU of the European Parliament (Council of 22 September 2010 on the protection of animals used for scientific purposes) and were approved by the local Bioethics Commissions. All manipulations with animals were carried out at the end of the 14-day adaptation period.
# We administered LCGM peptides intranasally. Peptides were dissolved in saline at a concentration appropriate for the dosage. For administration, the rat was held in a horizontal position, with its head slightly tilted back. Then, using an automatic laboratory pipette, no more than 10 μL of the peptide solution was carefully introduced into each nostril of the rat. After visually confirming that the entire volume of liquid entered the animal’s nose, the rats were returned to their home cage. […] This route of administration has several advantages for short peptides, such as rapid systemic drug absorption and the potential to bypass the blood–brain barrier more effectively and access the central nervous system ([Pires et al., 2009]; [Lochhead and Thorne, 2012]). For patients, this method is relatively noninvasive and limits the side effects associated with peripheral administration of substances ([Meredith et al., 2015]).
# Spontaneous locomotor activity (SLA) was measured using the Activiscop setup (NewBehavior Inc., Switzerland) ([Madani et al., 2003]). The animals were kept in home cages with free access to food and water. Motor activity was recorded using an infrared sensor located above each cage. The experiment lasted 2 days: On the first day, baseline activity was recorded, and then Wistar rats received LCGM-10 (5 mg/kg in saline, intranasal) and caffeine (30 mg/kg in saline, intraperitoneal) and were recorded for another 24 h. The days were divided into day 1 (12: 00–18: 59), night (19: 00–06: 59), and day 2 (07: 00–11: 59). The results are presented as the number of behavioral acts per minute (arbitrary units [a.u.]) for each animal. The experiment was performed by the Serbsky National Medical Research Center for Psychiatry and Narcology on a contract basis.
# mGluR5 = test: Luciferase reporter assay, mGluR5; details: transfected control cells; for antagonist effect on mGluR5 activity (in words): SIB 1757 10 μM + CHPG 1 mM
# Method: Ultimately, a chemiluminescent signal is produced by the promoter-driven reporter expression that is directly proportional to activation or inhibition of a specific GPCR in the cells ([Unal, 2019]).
# Briefly, the HEK293 cell line was transfected with three types of plasmids using polyethylenimine (PEI, 408727, Sigma-Aldrich, United States) 24 h prior to agonist application. Plasmid 1 encodes the GRM5–tTA fusion protein. The linker between mGluR5 and tTA is sensitive to TEV protease.^1 In case of testing the activity of LCGM-10 peptide toward mGluR1 and mGluR4, we applied the plasmids encoding GRM1-tTA^2 and GRM4-tTA^3 fusion proteins, respectively. Plasmid 2 encodes β-arrestin2–TEV protease fusion protein.^4 Plasmid 3 encodes the luciferase tTA reporter.^5 Transfected cells were treated with agonist/antagonist and incubated overnight (16 h). Antagonists were introduced 10 min prior to agonists. […] The luciferase test was performed using Promega™ Luciferase Assay Systems Kit (PR-E1500, Promega, United States) according to the manufacturer’s protocol.
# Statistical analyses were performed using GraphPad Prism 9.5 (GraphPad Software, United States). The in vitro luciferase reporter assay was performed in three biological replicates and analyzed with two-way analysis of variance with the post hoc Bonferroni multiple comparison test. […] Differences between groups were considered significant at p < 0.05.
smiles,measurement,setting,value
"Cc1cccc(C#Cc2ccccc2)n1 [MPEP, 2-methyl-6-(phenylethynyl) pyridine]",PAM activity at mGluR4 (in words),mGluR4 [1],able to act as PAMs of mGluR4
same,effect on GluNa-evoked Ca2+ influx (in words),"human mGluR5; vs 1 mM GluNa, Fluo-4 AM, 3 min preincubation 37°C, pH 7.4, peak fluorescence, N = 6",effectively blocked GluNa-evoked calcium oscillations in cells at all tested doses
same,concentrations with significant reduction of intracellular Ca2+ levels,"human mGluR5; vs activated control (1 mM GluNa), peak fluorescence, q < 0.05, N = 6 each",0.1 to 100 µM
same,effect on locomotion (in words),"rodents; applied to olfactory bulbs, dorsolateral striatum, dorsal hippocampus",stimulatory effect on locomotion
same,brain regions without locomotor stimulation (in words),rodents; local application,not primary motor area and ventral striatum
CC(NC(C)(C)C)C(=O)c1cccc(Cl)c1 (stereo not shown) [bupropion],effect on locomotion (in words),zebrafish [2]; bupropion 30 mg/kg,motor-stimulating effects
Cc1cccc(/C=C/c2ccccc2)n1 [SIB-1893],PAM activity at mGluR4 (in words),mGluR4 [1],able to act as PAMs of mGluR4
N[C@@H](CCC(=O)O)C(=O)[O-].[Na+] [GluNa],agonist effect on Ca2+ (in words),"human mGluR5; GluNa 1 mM vs non-activated cells, peak fluorescence, N = 7 (activated), N = 5 (basal)",enhanced fluorescence peak intensity; also recorded: enhanced Ca^2+ influx
COC(=O)C(c1ccccc1)C1CCCCN1 (stereo not shown) [methylphenidate],efficient in percent of cases,"ADHD patients; ref Bodey, 2011",up to 70%
same,discounting of delayed rewards (in words),human,reduced discounting of delayed rewards
same,discounting of delayed rewards (in words),animal models,reduced discounting of delayed rewards
Cc1nc(C#Cc2cccnc2)cs1 [MTEP],PAM activity at mGluR4 (in words),mGluR4 [1],The effect is not observed
N[C@H](C(=O)O)c1cc(O)cc(O)c1 [DHPG],reference ligand effect on mGluR1 (in words),mGluR1,induced luciferase signals
N=C(N)NC(=O)Cc1c(Cl)cccc1Cl [guanfacine],effect size of non-stimulants,ADHD patients,≤ 60%
N[C@@H](CCP(=O)(O)O)C(=O)O [L-AP4],reference ligand effect on mGluR4 (in words),mGluR4 [3],induced luciferase signals
CN1C(=O)CN=C(c2ccccc2)c2cc(Cl)ccc21 [diazepam],anxiolytic-like activity (in words),zebrafish [4],anxiolytic-like activity
Clc1cccc(Cl)c1N=C1NCCN1 [clonidine],effect size of non-stimulants,ADHD patients,≤ 60%
Cn1c(=O)c2c(ncn2C)n(C)c1=O [caffeine],effect on locomotion (in words),zebrafish [2]; caffeine 10 mg/kg,motor-stimulating effects
same,duration of SLA increase,mice,up to 3 h
same,SLA at night (in words),"Wistar rats; LCGM-10 5 mg/kg intranasal or caffeine 30 mg/kg intraperitoneal, night (19:00–06:59), F2, 20 = 0.6, p = 0.56",no effects of treatment on the nighttime activity
same,duration of SLA increase after administration,"Wistar rats; LCGM-10 5 mg/kg intranasal, caffeine 30 mg/kg intraperitoneal, 30-min intervals",up to 90 min
same,SLA on day 1 (in words),"Wistar rats; caffeine 30 mg/kg intraperitoneal, day 1 (12:00–18:59), N = 7–8",enhanced SLA; also recorded: significant induction of SLA
same,SLA on day 2 (in words),"Wistar rats; caffeine 30 mg/kg intraperitoneal, day 2 (07:00–11:59), N = 7–8",hypokinesia; also recorded: significant reduction in SLA
same,hypokinetic rebound (in words),"Wistar rats; single administration, LCGM-10 compared with caffeine",followed by a locomotor depression
"O=C(Nc1ccccc1)C12CC1/C(=N\O)c1ccccc1O2 (single isomer, unassigned; (-)) [(−)-PHCCC]",reference ligand effect on mGluR4 (in words),mGluR4 [3],enhanced L-AP4-induced mGluR4 activity
same,reference ligand effect on mGluR1 (in words),mGluR1,inhibited DHPG-induced mGluR1 activity
NC(C(=O)O)c1cc(O)ccc1Cl (racemic) [CHPG],agonist effect on luciferase signal (in words),mGluR5; CHPG 1 mM,enhanced; also recorded: induced a luciferase signal
Cc1ccc(O)c(N=Nc2ccccc2)n1 [SIB 1757],PAM activity at mGluR4 (in words),mGluR4 [1],The effect is not observed
same,antagonist effect on mGluR5 activity (in words),mGluR5,inhibited mGluR5 activity
same,antagonist effect on mGluR5 activity (in words),mGluR5; listed as SIB1757,depleted
CNCC[C@@H](Oc1ccccc1C)c1ccccc1 [atomoxetine],effect size of non-stimulants,ADHD patients,≤ 60%
